As usually defined, the melting point is the temperature, or range, at which the solid turns liquid.

`O=C(C[C@H]1CC[C@@](c2cc(F)ccc2F)(S(=O)(=O)c2ccc(Cl)cc2)CC1)c1ncn[nH]1` [Example 91] gave a melting point of 147 to 154 °C.

The record behind these values is patent publication US7304094B2, “Cyclohexyl sulphones” (Merck Sharp + Dohme, priority 2001, dated 2007).
